According to BindingDB's records for doi:10.1021/acs.jmedchem.6b00538 (University of Lille, 2017):
pIC50: −log10 of the molar value.

Biological target: Fatty-acid amide hydrolase 1 (Rattus norvegicus) (UniProt P97612)
Assay: Inhibition of Wistar rat brain homogenate FAAH using [3H]AEA as substrate after 10 mins by liquid scintillation counting method

Chain of Fatty-acid amide hydrolase 1 (Rattus norvegicus) (P97612 whole entry, looked up): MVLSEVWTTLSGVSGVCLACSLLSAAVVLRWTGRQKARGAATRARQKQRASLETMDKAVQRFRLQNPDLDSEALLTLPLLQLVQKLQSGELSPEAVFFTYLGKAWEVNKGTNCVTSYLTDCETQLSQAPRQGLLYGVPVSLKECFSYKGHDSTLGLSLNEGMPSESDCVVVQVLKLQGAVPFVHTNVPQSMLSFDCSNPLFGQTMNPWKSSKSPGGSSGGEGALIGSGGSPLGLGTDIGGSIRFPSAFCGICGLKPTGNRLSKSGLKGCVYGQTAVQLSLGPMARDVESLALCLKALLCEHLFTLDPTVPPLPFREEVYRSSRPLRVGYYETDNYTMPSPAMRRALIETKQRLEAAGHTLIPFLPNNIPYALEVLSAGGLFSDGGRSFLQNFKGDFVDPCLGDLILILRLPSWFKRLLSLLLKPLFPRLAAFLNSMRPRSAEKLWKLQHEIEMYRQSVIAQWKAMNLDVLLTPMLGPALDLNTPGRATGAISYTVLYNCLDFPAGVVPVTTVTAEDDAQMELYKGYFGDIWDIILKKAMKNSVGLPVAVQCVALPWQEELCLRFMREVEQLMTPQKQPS

pIC50: 6.64
SMILES: COc1nn(-c2ccc(Oc3ccccc3)cc2C(F)(F)F)c(=O)o1
